One molecule from patent US20080085246A1, “Use of Eugenol Acetate as an Agent Against Bad Breath” (SYMRISE GMBH & CO. KG, priority 2004, published 2008) can be followed below.

One experiment deals with Escherichia coli. Description: Minimum inhibitory concentration, series dilution test. The format is cell-based. The protocol:
(§1) The minimum inhibitory concentration (MIC) of eugenol acetate was determined in the series dilution test against various bacteria.

A further experiment deals with Fusobacterium nucleatum. The experiment is described as above. The format is cell-based. How it is done: as §1
Another experiment deals with Porphyromonas gingivalis. The experiment is described as above. Type of experiment: cell-based. How it is done:
as §1

For the next experiment, the system named is Prevotella intermedia. The experiment is described as above. The format is cell-based. How it is done: as §1
For another experiment, the system named is Pseudomonas aeruginosa. The experiment is described as above. Type of experiment: cell-based. The protocol: as §1
In a further experiment the test system is Staphylococcus aureus. The experiment is described as above. Type of experiment: cell-based. How it is done:
as §1

Another experiment deals with Streptococcus mutans. Described as above. Type of experiment: cell-based. How it is done: as §1
Experiment [1] concerns total number of germs in the oral saliva samples. The experiment is described as follows: Total number of germs in oral saliva samples. Conditions: 1,000 ppm. Type of experiment: cell-based.
Experiment [2] has as its system liquid medium inoculated with fresh morning saliva. The experiment is described as follows: In vitro test for reduction of bad breath (inoculated medium smelled by a panel of testers).

The term MIC denotes the lowest concentration that inhibits growth of the organism. A high value points to weaker potency. Turning to `C=CCc1ccc(OC(C)=O)c(OC)c1` [eugenol acetate, 4-allyl-2-methoxyphenyl acetate], the MIC in the experiment on Escherichia coli is over 1000 µg/mL; in the experiment with Fusobacterium nucleatum, 500 µg/mL; in the experiment on Porphyromonas gingivalis it was 1000 µg/mL; against Prevotella intermedia, 500 µg/mL; in the experiment on Pseudomonas aeruginosa, over 1000 µg/mL; against Staphylococcus aureus it was over 1000 µg/mL. The MIC in the experiment with Streptococcus mutans is over 1000 µg/mL. In addition, the Type result with Escherichia coli is given as “no action up to 1,000 ppm”; in the experiment with Fusobacterium nucleatum (500 ppm), “bactericidal action”; in the experiment with Prevotella intermedia (500 ppm) it was “bactericidal action”; in the experiment with Pseudomonas aeruginosa, “no action up to 1,000 ppm”; in the experiment with Staphylococcus aureus it was “no action up to 1,000 ppm”; in the experiment on Streptococcus mutans, “no action up to 1,000 ppm”. Further, in [1], the “reduction in respect of the total number of germs” value is recorded as “no significant reduction”. For the same molecule, the “smell after the incubation time” value in experiment [2] (0.01% added to inoculated samples, 37 °C for some days) is on record as “no smell”; in experiment [2] (significantly lower concentrations than 0.01%), “a changed intrinsic smell or a mixed smell was perceptible in some cases”. Besides, in experiment [2] (0.05% added to the inoculated medium only one hour before the sensory evaluation), the “smell at sensory evaluation” value is “unpleasant mixed smell of bad breath and a weak eugenol acetate note”. Moreover, the minimum active concentration in experiment [2] (inoculated samples, no smell after incubation) is on record as 0.01%.
